Results as given in patent US20230218563A1, “METHODS FOR TREATING OR PREVENTING CHRONIC KIDNEY DISEASE” (Arthrosi Therapeutics, Inc., priority 2020, published 2023).

System: serum uric acid (sUA)
Experiment: Phase 1 single dose study, pharmacodynamics (serum uric acid) in healthy adult males
Format: in vivo, human
Protocol: The dose groups included Cohort 1 (15 mg or placebo, fasted, oral suspension), Cohort 2 (50 mg or placebo, fasted, suspension), Cohort 3 (100 mg or placebo, fasted, oral suspension), Cohort 4 (150 mg or placebo, fasted, oral suspension), Cohort 6 (50 mg or placebo, fed, oral suspension), and Cohort 7 (50 mg or placebo, fasted, oral capsule). […] An additional 8 subjects received placebo.
Decrease in sUA appeared to reach a plateau at 100 mg or lower.

[1] = 100 mg single oral, fasted, 6 h
[2] = 100 mg single oral, fasted, 12 h
[3] = 100 mg single oral, fasted, 24 h
[4] = 100 mg single oral, fasted, 30 h
[5] = 100 mg single oral, fasted, 36 h
[6] = 100 mg single oral, fasted, 48 h
[7] = 100 mg single oral, fasted, 54 h
[8] = 100 mg single oral, fasted, 60 h
[9] = 100 mg single oral, fasted, 72 h
[10] = 100 mg single oral, fasted, 96 h
[11] = 100 mg single oral, fasted, 120 h
[12] = 150 mg single oral, fasted, 6 h
[13] = 150 mg single oral, fasted, 12 h
[14] = 150 mg single oral, fasted, 24 h
[15] = 150 mg single oral, fasted, 30 h
[16] = 150 mg single oral, fasted, 36 h
[17] = 150 mg single oral, fasted, 48 h
[18] = 150 mg single oral, fasted, 54 h
[19] = 150 mg single oral, fasted, 60 h
[20] = 150 mg single oral, fasted, 72 h
[21] = 150 mg single oral, fasted, 96 h
[22] = 150 mg single oral, fasted, 120 h
[23] = single oral dose, 50 mg or higher, fasted

[2H]c1c([2H])c([2H])c2c(C(=O)c3cc(Br)c(O)c(Br)c3)c(C(C)O)oc2c1[2H] (racemic) [Compound 1, (3,5-dibromo-4-hydroxyphenyl)(2-(1-hydroxyethyl)benzofuran-3-yl-4,5,6,7-d4)methanone]
Percent change in serum uric acid, mean, time-matched (Day-1) baseline (50 mg single oral, fed, 12 h): −37.7% | Serum uric acid, mean (50 mg single oral, fed, 12 h): 3.9 mg/dL | Percent change in serum uric acid, mean, time-matched (Day-1) baseline (50 mg single oral, fed, 24 h): −41.9% | Serum uric acid, mean (50 mg single oral, fed, 24 h): 3.8 mg/dL | Percent change in serum uric acid, mean, time-matched (Day-1) baseline (50 mg single oral, fed, 30 h): −40.1% | Serum uric acid, mean (50 mg single oral, fed, 30 h): 3.6 mg/dL | Percent change in serum uric acid, mean, time-matched (Day-1) baseline (50 mg single oral, fed, 36 h): −37.4% | Serum uric acid, mean (50 mg single oral, fed, 36 h): 3.9 mg/dL | Percent change in serum uric acid, mean, time-matched (Day-1) baseline (50 mg single oral, fed, 48 h): −32.6% | Serum uric acid, mean (50 mg single oral, fed, 48 h): 4.4 mg/dL | Percent change in serum uric acid, mean, time-matched (Day-1) baseline (50 mg single oral, fed, 54 h): −29.8% | Serum uric acid, mean (50 mg single oral, fed, 54 h): 4.2 mg/dL | Percent change in serum uric acid, mean, time-matched (Day-1) baseline (50 mg single oral, fed, 60 h): −31.3% | Serum uric acid, mean (50 mg single oral, fed, 60 h): 4.3 mg/dL | Percent change in serum uric acid, mean, time-matched (Day-1) baseline (50 mg single oral, fed, 72 h): −23.3% | Serum uric acid, mean (50 mg single oral, fed, 72 h): 5.0 mg/dL | Percent change in serum uric acid, mean, time-matched (Day-1) baseline (50 mg single oral, fed, 96 h): −10.9% | Serum uric acid, mean (50 mg single oral, fed, 96 h): 5.8 mg/dL | Percent change in serum uric acid, mean, time-matched (Day-1) baseline (50 mg single oral, fed, 120 h): −5.8% | Serum uric acid, mean (50 mg single oral, fed, 120 h): 6.1 mg/dL | sUA reduction with versus without food (50 mg single oral, throughout 120 hours post-dose): no difference observed | Percent change in serum uric acid, mean, time-matched (Day-1) baseline [1]: −31.6% | Serum uric acid, mean [1]: 3.5 mg/dL | Percent change in serum uric acid, mean, time-matched (Day-1) baseline [2]: −48.2% | Serum uric acid, mean [2]: 2.6 mg/dL | Percent change in serum uric acid, mean, time-matched (Day-1) baseline [3]: −58.8% | Serum uric acid, mean [3]: 2.3 mg/dL | Percent change in serum uric acid, mean, time-matched (Day-1) baseline [4]: −58.2% | Serum uric acid, mean [4]: 2.2 mg/dL | Percent change in serum uric acid, mean, time-matched (Day-1) baseline [5]: −52.9% | Serum uric acid, mean [5]: 2.4 mg/dL | Percent change in serum uric acid, mean, time-matched (Day-1) baseline [6]: −47.4% | Serum uric acid, mean [6]: 2.9 mg/dL | Percent change in serum uric acid, mean, time-matched (Day-1) baseline [7]: −45.7% | Serum uric acid, mean [7]: 2.8 mg/dL | Percent change in serum uric acid, mean, time-matched (Day-1) baseline [8]: −37.5% | Serum uric acid, mean [8]: 3.1 mg/dL | Percent change in serum uric acid, mean, time-matched (Day-1) baseline [9]: −38.7% | Serum uric acid, mean [9]: 3.4 mg/dL | Percent change in serum uric acid, mean, time-matched (Day-1) baseline [10]: −17.3% | Serum uric acid, mean [10]: 4.6 mg/dL | Percent change in serum uric acid, mean, time-matched (Day-1) baseline [11]: −3.8% | Serum uric acid, mean [11]: 5.4 mg/dL | Percent change in serum uric acid, mean, time-matched (Day-1) baseline [12]: −36.2% | Serum uric acid, mean [12]: 3.7 mg/dL | Percent change in serum uric acid, mean, time-matched (Day-1) baseline [13]: −50.4% | Serum uric acid, mean [13]: 2.6 mg/dL | Percent change in serum uric acid, mean, time-matched (Day-1) baseline [14]: −59.3% | Serum uric acid, mean [14]: 2.5 mg/dL | Percent change in serum uric acid, mean, time-matched (Day-1) baseline [15]: −59.1% | Serum uric acid, mean [15]: 2.3 mg/dL | Percent change in serum uric acid, mean, time-matched (Day-1) baseline [16]: −55.6% | Serum uric acid, mean [16]: 2.4 mg/dL | Percent change in serum uric acid, mean, time-matched (Day-1) baseline [17]: −53.8% | Serum uric acid, mean [17]: 2.8 mg/dL | Percent change in serum uric acid, mean, time-matched (Day-1) baseline [18]: −49.5% | Serum uric acid, mean [18]: 2.9 mg/dL | Percent change in serum uric acid, mean, time-matched (Day-1) baseline [19]: −40.8% | Serum uric acid, mean [19]: 3.1 mg/dL | Percent change in serum uric acid, mean, time-matched (Day-1) baseline [20]: −37.1% | Serum uric acid, mean [20]: 3.8 mg/dL | Percent change in serum uric acid, mean, time-matched (Day-1) baseline [21]: −25.9% | Serum uric acid, mean [21]: 4.5 mg/dL | Percent change in serum uric acid, mean, time-matched (Day-1) baseline [22]: −15.4% | Serum uric acid, mean [22]: 5.2 mg/dL | onset of sUA lowering effect [23]: 6 hours post-dose | time of sUA nadir [23]: 24-36 hours post-dose | time sUA remained lower than baseline levels [23]: up to 72 hours post-dose | dose at which decrease in sUA appeared to reach a plateau (single oral dose, fasted): ≤ 100 mg
